How the values were obtained:
CydDC [1] = biological target: T1, CydDC (Escherichia coli, UniProt P23886+P29018); assay: single-particle cryo-EM structure; format: binding; conditions: IFasym apo state, active turnover
T1 construct: gene cydC; full-length heterodimer, C-terminal His6 on CydC, from pTTQ18 (pcydDC) in E. coli BL21 pLysS (DE3); purified in DDM (ATPase assays) or LMNG (cryo-EM)

CydDC [2] = biological target: T2, CydDC (Escherichia coli, UniProt P23886+P29018, P23886:E500Q); assay: single-particle cryo-EM structure; conditions: Occ return apo state; both nucleotide-binding sites; turnover dataset with heme, ATP and Mg2+
T2 construct: gene cydC; full-length heterodimer, C-terminal His6 on CydC, from pTTQ18 (pcydDC) in E. coli BL21 pLysS (DE3); purified in DDM (ATPase assays) or LMNG (cryo-EM)

[3] = system: Nc1ncnc2c1ncn2[C@@H]1O[C@H](COP(=O)(O)OP(=O)(O)OP(=O)(O)O)[C@@H](O)[C@H]1O; assay: purified protein; conditions: 0.3 µM heme, 3 mM MgCl2, pH 7.0, 37 °C, 0.02% DDM

T1 sequence (P23886 whole entry): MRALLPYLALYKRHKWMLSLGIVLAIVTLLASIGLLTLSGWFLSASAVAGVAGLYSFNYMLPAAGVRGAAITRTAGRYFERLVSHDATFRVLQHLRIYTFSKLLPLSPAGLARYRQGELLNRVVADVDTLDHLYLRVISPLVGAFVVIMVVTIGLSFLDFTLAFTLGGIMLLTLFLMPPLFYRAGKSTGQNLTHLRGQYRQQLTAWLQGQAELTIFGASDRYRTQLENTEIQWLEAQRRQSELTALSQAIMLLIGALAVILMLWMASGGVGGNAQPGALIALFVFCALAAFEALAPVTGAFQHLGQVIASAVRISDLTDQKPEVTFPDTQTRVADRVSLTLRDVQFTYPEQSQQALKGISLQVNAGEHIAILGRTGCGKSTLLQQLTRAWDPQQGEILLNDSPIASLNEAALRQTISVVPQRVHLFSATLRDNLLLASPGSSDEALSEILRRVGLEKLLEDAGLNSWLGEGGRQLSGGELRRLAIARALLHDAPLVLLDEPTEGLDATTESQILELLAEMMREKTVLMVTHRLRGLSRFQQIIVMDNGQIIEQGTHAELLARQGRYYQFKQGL
T1 sequence (P29018 whole entry): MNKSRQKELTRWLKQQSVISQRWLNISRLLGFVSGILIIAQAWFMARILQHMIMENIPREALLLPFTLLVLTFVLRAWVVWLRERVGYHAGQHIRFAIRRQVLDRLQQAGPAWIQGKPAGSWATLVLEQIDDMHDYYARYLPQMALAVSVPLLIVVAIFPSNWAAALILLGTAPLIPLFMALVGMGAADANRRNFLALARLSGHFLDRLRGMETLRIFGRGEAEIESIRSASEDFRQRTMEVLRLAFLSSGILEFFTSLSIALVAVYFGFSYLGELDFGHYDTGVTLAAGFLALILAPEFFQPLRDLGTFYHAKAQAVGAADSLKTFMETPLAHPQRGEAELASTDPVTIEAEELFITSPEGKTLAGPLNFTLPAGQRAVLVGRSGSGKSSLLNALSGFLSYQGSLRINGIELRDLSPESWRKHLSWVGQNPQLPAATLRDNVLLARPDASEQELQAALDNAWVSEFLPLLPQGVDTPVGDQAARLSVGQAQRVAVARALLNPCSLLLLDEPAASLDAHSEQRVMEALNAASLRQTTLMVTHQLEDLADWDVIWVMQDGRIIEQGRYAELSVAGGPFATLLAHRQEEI
T2 sequence (P23886 whole entry E500Q): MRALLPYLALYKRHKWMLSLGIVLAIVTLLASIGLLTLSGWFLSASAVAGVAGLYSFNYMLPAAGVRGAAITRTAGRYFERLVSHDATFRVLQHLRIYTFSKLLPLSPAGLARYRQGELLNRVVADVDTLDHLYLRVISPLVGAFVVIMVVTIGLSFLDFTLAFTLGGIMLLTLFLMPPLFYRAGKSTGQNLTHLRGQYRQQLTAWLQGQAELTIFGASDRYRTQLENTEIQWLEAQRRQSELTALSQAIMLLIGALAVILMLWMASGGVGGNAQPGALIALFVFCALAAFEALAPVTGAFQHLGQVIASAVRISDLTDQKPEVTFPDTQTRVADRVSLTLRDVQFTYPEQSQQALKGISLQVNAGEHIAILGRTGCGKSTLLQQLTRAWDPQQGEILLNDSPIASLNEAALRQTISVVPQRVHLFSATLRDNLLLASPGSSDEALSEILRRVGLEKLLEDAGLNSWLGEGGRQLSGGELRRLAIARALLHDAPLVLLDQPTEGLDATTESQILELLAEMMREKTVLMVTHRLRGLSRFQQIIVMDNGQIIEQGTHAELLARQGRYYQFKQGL
T2 sequence (P29018 whole entry): as the sequence (P29018 whole entry) above

Nc1ncnc2c1ncn2[C@@H]1O[C@H](COP(=O)(O)OP(=O)(O)O)[C@@H](O)[C@H]1O [ADP]
single-particle cryo-EM structure (CydDC [1]; site NBS of CydC, with Pi): obtained from the turnover dataset of CydDC to ADP and Pi

Nc1ncnc2c1ncn2[C@@H]1O[C@H](COP(=O)(O)OP(=O)(O)OP(=O)(O)O)[C@@H](O)[C@H]1O [ATP]
single-particle cryo-EM structure (CydDC [1]; degenerate site NBS of CydD): NBS^D conformations in the Occreturnapo (ATP), IFasymapo (ATP)
single-particle cryo-EM structure (CydDC [2]): The left panel shows a close-up view of ATP bound to NBS^D

CydDC (Escherichia coli K-12)
Km [3]: 91.9 ± 9.7 µM

Reference: publication PMC10374445 (Nature Chemical Biology, 2023)
